In ChEMBL document CHEMBL1146480, “Antimycobacterial Naphthopyrones from Senna obliqua” (2004):
Values after ≈ are worked out from the molar mass of the structure shown.

What was measured:
[1] = system: Mycobacterium tuberculosis; test: Antimycobacterial activity against Mycobacterium tuberculosis ATCC 27294 in radiometric culture by NCCLS method; type: functional
[2] = system: Mycobacterium tuberculosis; test: Antimycobacterial activity against Mycobacterium tuberculosis ATCC 27294 in radiometric culture at 50 ug/ml by NCCLS method; type: functional

COc1cc(O)c2c(O)c3c(=O)cc(C)oc3cc2c1C [QUINQUANGULIN]
MIC [1]: 12 µg/mL (≈ 41.9 µM)
inhibition at 50 µg/mL [2]: 99%

COc1cc(O)c2c(O)c3c(=O)cc(C)oc3cc2c1 [RUBROFUSARIN]
MIC [1]: 12 µg/mL (≈ 44.1 µM)
inhibition at 50 µg/mL [2]: 99%
